# Measurements from the NIST ThermoML archive (doi:10.1021/je7007523).
# Where “and” joins values, the source holds several entries; their conditions need not be identical. Equal values may be shown once. ± gives the expanded uncertainty stated by the source.
# Conditions: 313.15 K; Liquid; Ebulliometric method (Recirculating still)
row,SMILES,vapor or sublimation pressure
1,C1CCCCC1 [cyclohexane],24.61 ± 0.14 kPa and 24.62 ± 0.14 kPa
2,CCCCCCC [heptane],12.33 ± 0.088 kPa and 12.33 ± 0.087 kPa
3,C=CCCCC [hex-1-ene],44.95 ± 0.22 kPa
